# Where two headings read alike, the source gives them in different places.
# Tests used:
# [1] = mouse, in vivo
# [2] = pH 7.4
# [3] = plasma
# [4] = mouse, microsomes
# in vitro = conditions: mouse, microsomes
# [5] = test system: vesicular stomatitis virus particles (VSV) pseudotyped with EboV Zaire GP; test: microbe, parasite or virus in culture; format: cell-based
# physchem = conditions: pH 7.4, aqueous buffer, kinetic from dmso stock
SMILES,IC50 ([5]; Vesicular stomatitis virus) [nM],also measured
CS(=O)(=O)c1ccc(COc2ccc(Cl)cc2CN2CCN(C(=O)CNC(=O)C3CC34CCC(F)(F)CC4)CC2)cc1 (racemic) [(racemic)-1476],,Concentration required to reduce cell viability by 50% (cell viability): exceeded 10 μM
[2H]C([2H])(c1cc(Cl)ccc1NCc1ccc(S(C)(=O)=O)cc1)N1CCN(C(=O)CNC(=O)C2CC23CCC(F)(F)CC3)CC1 (racemic) [(racemic)-1503],,Concentration required to reduce cell viability by 50% (cell viability): exceeded 10 μM
"Nc1ccc(Cl)cc1CN1CCN(C(=O)CNC(=O)C2CC23CCC(F)(F)CC3)CC1 (single isomer, unassigned; (-)) [(−)-1413]",,"Cmax ([1]; po, 50 mg/kg): 19.5 µM"
"CS(=O)(=O)c1ccc(COc2ccc(Cl)cc2CN2CCN(C(=O)CNC(=O)C3CC34CCC(F)(F)CC4)CC2)cc1 (single isomer, unassigned; (-)) [(−)-1476]",,"Kinetic solubility [2]: 10 µM; Mouse PPB (% bound) [3]: 97.6%; MLM, T½ (min) (ritonavir 3 μM) [4]: >120 min; C@12 hr [1]: 4.7 µM; Cl_obs [1]: 11.9 mL/min/kg; Plasma concentration after 12 hours relative to in vitro IC50 against rVSV EBOV infection in 50% human serum [1]: 50 fold; AUClast ([1]; po, 50 mg/kg): 116.4 µM·h; Cmax ([1]; po, 50 mg/kg): 10.4 µM; T1/2 ([1]; po, 50 mg/kg): 132 min; Tmax ([1]; po, 50 mg/kg): 240 min"
"CS(=O)(=O)c1ccc(CNc2ccc(Cl)cc2CN2CCN(C(=O)CNC(=O)C3CC34CCC(F)(F)CC4)CC2)cc1 (single isomer, unassigned; (-)) [(−)-1503]",,"Cmax ([1]; po, 50 mg/kg): 7.4 µM"
O=C(CC12CC3(F)CC(F)(CC(F)(C3)C1)C2)NCC(=O)N1CCN(Cc2ccccc2OCc2ccc(Br)cc2)CC1 [Compound 1254],200,"half-life (in vitro; pH 7.4, MLM T½ (min)): 1 min"
"Nc1ccc(Cl)cc1CN1CCN(C(=O)CNC(=O)CC2CCC(F)(F)CC2)CC1 [Compound 1343, N-(2-(4-(2-Amino-5-chlorobenzyl)piperazin-1-yl)-2-oxoethyl)-2-(4,4-difluorocyclohexyl)acetamide]",320,"Sol [2]: >100 mM; Mouse PPB (% bound) [3]: 86.9%; half-life (in vitro; pH 7.4, MLM T½ (min)): 9 min; half-life (in vitro; pH 7.4, T1/2(min)): 8.7 min; solubility kinetic (physchem): > 100 µM"
"Nc1ccc(Cl)cc1CN1CCN(C(=O)CNC(=O)C2CC23CCC(F)(F)CC3)CC1 (stereo not drawn) [Compound 1373, N-(2-(4-(2-Amino-5-chlorobenzyl)piperazin-1-yl)-2-oxoethyl)-6,6-difluorospiro[2.5]octane-1-carboxamide]",100,"half-life (in vitro; pH 7.4, T1/2(min)): 1.3 min"
"[2H]C([2H])(c1cc(Cl)ccc1N)N1CCN(C(=O)CNC(=O)C2CC23CCC(F)(F)CC3)CC1 (stereo not drawn) [Compound 1413, N-(2-(4-((2-amino-5-chlorophenyl)methyl-d2)piperazin-1-yl)-2-oxoethyl)-6,6-difluorospiro[2.5]octane-1-carboxamide]",68,"half-life (in vitro; pH 7.4, Microsome T1/2): 1.4 to 2 min; half-life (in vitro; pH 7.4, T1/2(min)): 2 min; half-life (in vitro; pH 7.4, T1/2 + ritonavir (min)): 215 min; T1/2 (min) ([4]; pH 7.4): 13/215 min; IC50 [5]: 130 nM; solubility kinetic (physchem): > 100 µM"
O=C(CC1CCC(F)(F)CC1)NCC(=O)N1CCN(Cc2cc(F)ccc2OCc2ccc3nonc3c2)CC1 [Compound 1456],190,
CS(=O)(=O)c1ccc(Oc2cc(F)cc(CN3CCN(C(=O)CNC(=O)C4CC45CCC(F)(F)CC5)CC3)c2)cc1 (stereo not drawn) [Compound 1459],200,
CS(=O)(=O)c1ccc(Oc2cc(F)cc(CN3CCN(C(=O)CNC(=O)CC4CCC(F)(F)CC4)CC3)c2)cc1 [Compound 1460],> 1000,
CS(=O)(=O)c1ccc(Oc2cc(Cl)cc(CN3CCN(C(=O)CNC(=O)C4CC45CCC(F)(F)CC5)CC3)c2)cc1 (stereo not drawn) [Compound 1461],150,
CS(=O)(=O)c1ccc(Oc2cc(Cl)cc(CN3CCN(C(=O)CNC(=O)CC4CCC(F)(F)CC4)CC3)c2)cc1 [Compound 1462],> 1000,
[2H]C([2H])(c1cc(Cl)ccc1NCC)N1CCN(C(=O)CNC(=O)C2CC23CCC(F)(F)CC3)CC1 (stereo not drawn) [Compound 1534],200,
"CS(=O)(=O)c1ccc(COc2ccc(Cl)cc2CN2CCN(C(=O)CNC(=O)C3CC34CCCCC4)CC2)cc1 (stereo not drawn) [Compound 1539, Spiro[2.5]octane-1-carboxylic acid (2-{4-[5-chloro-2-(4-methanesulfonyl-benzyloxy)-benzyl]-piperazin-1-yl}-2-oxo-ethyl)-amide]",100,
"[2H]C([2H])(c1cc(Cl)ccc1NCc1ccc(C(=O)OC)cn1)N1CCN(C(=O)CNC(=O)C2CC23CCC(F)(F)CC3)CC1 (stereo not drawn) [Compound 1548, 6-{[4-Chloro-2-(4-{2-[(6,6-difluoro-spiro[2.5]octane-1-carbonyl)-amino]-acetyl}-piperazin-1-yl-di-deutero-methyl)-phenylamino]-methyl}-nicotinic acid methyl ester]",7,
"[2H]C([2H])(c1cc(Cl)ccc1NCc1ccc(C(=O)OC)nc1)N1CCN(C(=O)CNC(=O)C2CC23CCC(F)(F)CC3)CC1 (stereo not drawn) [Compound 1549, 5-{[4-Chloro-2-(4-{2-[(6,6-difluoro-spiro[2.5]octane-1-carbonyl)-amino]-acetyl}-piperazin-1-yl-di-deutero-methyl)-phenylamino]-methyl}-pyridine-2-carboxylic acid methyl ester]",50,
[2H]C([2H])(c1cc(Cl)ccc1NCc1cnco1)N1CCN(C(=O)CNC(=O)C2CC23CCC(F)(F)CC3)CC1 (stereo not drawn) [Compound 1560],40,

SMILES,IC50 ([5]; Vesicular stomatitis virus) [nM],also measured
[2H]C([2H])(c1cc(Cl)ccc1NCc1ccc(S(C)(=O)=O)c(F)c1)N1CCN(C(=O)CNC(=O)[C@@H]2CC23CCC(F)(F)CC3)CC1 [Compound 1561],8,
[2H]C([2H])(c1cc(Cl)ccc1NCc1ccc(S(C)(=O)=O)cc1F)N1CCN(C(=O)CNC(=O)[C@@H]2CC23CCC(F)(F)CC3)CC1 [Compound 1562],13,
[2H]C([2H])(c1cc(Cl)ccc1NCc1ncccn1)N1CCN(C(=O)CNC(=O)[C@@H]2CC23CCC(F)(F)CC3)CC1 [Compound 1580],700,
[2H]C([2H])(c1cc(Cl)ccc1NCc1ccon1)N1CCN(C(=O)CNC(=O)[C@@H]2CC23CCC(F)(F)CC3)CC1 [Compound 1581],470,
[2H]C([2H])(c1cc(Cl)ccc1NCc1ccc(F)cn1)N1CCN(C(=O)CNC(=O)[C@@H]2CC23CCC(F)(F)CC3)CC1 [Compound 1582],240,
[2H]C([2H])(c1cc(Cl)ccc1NCc1cocn1)N1CCN(C(=O)CNC(=O)[C@@H]2CC23CCC(F)(F)CC3)CC1 [Compound 1583],150,
[2H]C([2H])(c1cc(Cl)ccc1NCc1ccc(C#N)cn1)N1CCN(C(=O)CNC(=O)[C@@H]2CC23CCC(F)(F)CC3)CC1 [Compound 1584],30,
O=C(NCC(=O)N1CCN(Cc2cc(Cl)ccc2NCc2ncco2)CC1)[C@@H]1CC12CCC(F)(F)CC2 [Compound 1585],1300,
[2H]C([2H])(c1cc(Cl)ccc1NCc1ccc(S(C)(=O)=O)cn1)N1CCN(C(=O)CNC(=O)[C@@H]2CC23CCC(F)(F)CC3)CC1 [Compound 1586],45,
[2H]C([2H])(c1cc(Cl)ccc1NCc1cnco1)N1CCN(C(=O)CNC(=O)[C@@H]2CC23CCC(F)(F)CC3)CC1 [Compound 1587],130,
"CS(=O)(=O)c1ccc(COc2ccc(Cl)cc2CN2CCN(C(=O)CNC(=O)C3CC34CCC(F)(F)CC4)CC2)nc1 (stereo not drawn) [Compound 1621, 6,6-Difluoro-spiro[2.5]octane-1-carboxylic acid (2-{4-[5-chloro-2-(5-methanesulfonyl-pyridin-2-ylmethoxy)-benzyl]-piperazin-1-yl}-2-oxo-ethyl)-amide]",30,
"N#Cc1ccc(COc2ccc(Cl)cc2CN2CCN(C(=O)CNC(=O)C3CC34CCC(F)(F)CC4)CC2)nc1 (stereo not drawn) [Compound 1622, 6,6-Difluoro-spiro[2.5]octane-1-carboxylic acid (2-{4-[5-chloro-2-(5-cyano-pyridin-2-ylmethoxy)-benzyl]-piperazin-1-yl)-2-oxo-ethyl)-amide]",19,
CNC(=O)c1ccc(COc2ccccc2CN2CCN(C(=O)CNC(=O)CC34CC5CC(CC(C5)C3)C4)CC2)cc1 [Compound 1801],2100,
CN(C)C(=O)c1ccc(COc2ccccc2CN2CCN(C(=O)CNC(=O)CC34CC5CC(CC(C5)C3)C4)CC2)cc1 [Compound 1802],3300,
NC(=O)c1ccc(Cl)cc1CN1CCN(C(=O)CNC(=O)CC23CC4CC(CC(C4)C2)C3)CC1 [Compound 1804],1900,
"O=C(CNC(=O)C12CC3CC(C1)CC(c1ccc(O)c([N+](=O)[O-])c1)(C3)C2)N1CCN(Cc2ccccc2OCc2ccc(Br)cc2)CC1 [Compound 1805, (1s,3r,5R,7S)—N-(2-(4-(2-((4-bromobenzyl)oxy)benzyl)piperazin-1-yl)-2-oxoethyl)-3-(4-hydroxy-3-nitrophenyl)adamantane-1-carboxamide]",600,
"Nc1ccc(Cl)cc1CN1CCN(C(=O)CNC(=O)C2CC23CCCC3)CC1 (stereo not drawn) [Compound 1806, N-(2-(4-(2-Amino-5-chlorobenzyl)piperazin-1-yl)-2-oxoethyl)spiro[2.4]heptane-1-carboxamide]",240,
"Nc1ccc(Cl)cc1CN1CCN(C(=O)CNC(=O)C2CC23CCC3)CC1 (stereo not drawn) [Compound 1807, N-(2-(4-(2-Amino-5-chlorobenzyl)piperazin-1-yl)-2-oxoethyl)spiro[2.3]hexane-1-carboxamide]",2500,
"CC(C)c1nc(CN(C)C(=O)N[C@H](C(=O)N[C@@H](Cc2ccccc2)C[C@H](O)[C@H](Cc2ccccc2)NC(=O)OCc2cncs2)C(C)C)cs1 [Ritonavir, reference compound]",,"IC50 ([5]; Vesicular stomatitis virus, read-out: IC50, VSV EBOV infection): > 25000 nM"

# — patent US11629139B2 (priority 2017, dated 2023)
